According to patent US8114880B2, “Piperidine or piperazine substituted tetrahydro-naphthalene-1-carboxylic acid MTP inhibiting compounds” (Janssen Pharmaceutica N.V., priority 2006, dated 2012):

Legend:
[1] = tested on: HepG2 cells; assay: Quantification of the secretion of ApoB; format: cell-based; conditions: 24 hours of incubation; for IC50: Homo sapiens, HepG2, 24 h, pIC50 = -log IC50
Protocol: HepG2 cells were cultured in 24-well plates in MEM Rega 3 containing 10% fetal calf serum. At 70% confluency, the medium was changed and the test compound or carrier (DMSO, 0.4% final concentration) was added. After 24 hours of incubation, the medium was transferred to Eppendorf tubes and cleared by centrifugation. A sheep antibody directed against either apoB was added to the supernatant and the mixture was kept at 8° C. for 24 hours. Then, rabbit anti-sheep antibody was added and the immune complex was allowed to precipitate for 24 hours at 8° C. The immunoprecipitate was pelleted by centrifugation for 25 minutes at 1320 g and washed twice with a buffer containing 40 mM Mops, 40 mM NaH2PO4, 100 mM NaF, 0.2 mM DTT, 5 mM EDTA, 5 mM EGTA, 1% Triton-X-100, 0.5% sodium deoxycholate (DOC), 0.1% SDS, 0.2 μM leupeptin and 0.2 μM PMSF. Radioactivity in the pellet was quantified by liquid scintillation counting. The IC50 values are usually converted to pIC50 values (=−log IC50 value) for ease of use.

[2] = target: MTP (Homo sapiens, UniProt P55157); assay: MTP assay (triglyceride transfer from donor to acceptor vesicles); format: biochemical; conditions: MTP activity, percent triglyceride transfer from donor to acceptor vesicles, 37° C.
Outline: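 Radiolabelled triglyceride transfer from donor vesicles (phosphatidylcholine, 7.5 mol % cardiolipin, 0.25 mol % glycerol tri[1-^14C]-oleate) to phosphatidylcholine acceptor vesicles with BSA, pH 7.5 Tris buffer; compounds in DMSO (0.13% final), 5 min preincubation at 37° C before MTP addition. Donor vesicles removed on DEAE-52; acceptor-supernatant ^14C counts give percent transfer.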

Chain of MTP (P55157 19-894, species assumed): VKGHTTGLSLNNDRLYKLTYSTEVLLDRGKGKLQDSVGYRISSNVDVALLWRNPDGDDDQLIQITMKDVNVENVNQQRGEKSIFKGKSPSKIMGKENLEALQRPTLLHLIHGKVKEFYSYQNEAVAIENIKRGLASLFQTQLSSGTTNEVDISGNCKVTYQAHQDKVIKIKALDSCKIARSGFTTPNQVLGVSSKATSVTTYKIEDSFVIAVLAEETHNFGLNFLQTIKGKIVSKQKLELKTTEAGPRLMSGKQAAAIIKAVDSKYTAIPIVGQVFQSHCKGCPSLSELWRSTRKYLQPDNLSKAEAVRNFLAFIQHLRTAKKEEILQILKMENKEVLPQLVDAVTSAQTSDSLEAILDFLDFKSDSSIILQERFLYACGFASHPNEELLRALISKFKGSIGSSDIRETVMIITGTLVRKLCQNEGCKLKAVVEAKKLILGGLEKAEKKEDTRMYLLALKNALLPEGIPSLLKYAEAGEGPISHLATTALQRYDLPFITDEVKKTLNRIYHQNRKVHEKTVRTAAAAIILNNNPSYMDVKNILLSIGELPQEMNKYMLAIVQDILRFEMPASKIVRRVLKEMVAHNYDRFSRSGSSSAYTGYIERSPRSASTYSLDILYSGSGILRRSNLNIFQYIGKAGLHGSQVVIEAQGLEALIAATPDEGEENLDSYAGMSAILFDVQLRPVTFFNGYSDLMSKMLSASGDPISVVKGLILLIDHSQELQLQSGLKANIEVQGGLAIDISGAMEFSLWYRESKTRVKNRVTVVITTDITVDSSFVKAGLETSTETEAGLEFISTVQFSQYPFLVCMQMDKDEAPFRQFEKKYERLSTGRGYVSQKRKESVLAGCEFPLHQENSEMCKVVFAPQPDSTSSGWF
Chain of MTP (P07237 18-508 partner, species assumed): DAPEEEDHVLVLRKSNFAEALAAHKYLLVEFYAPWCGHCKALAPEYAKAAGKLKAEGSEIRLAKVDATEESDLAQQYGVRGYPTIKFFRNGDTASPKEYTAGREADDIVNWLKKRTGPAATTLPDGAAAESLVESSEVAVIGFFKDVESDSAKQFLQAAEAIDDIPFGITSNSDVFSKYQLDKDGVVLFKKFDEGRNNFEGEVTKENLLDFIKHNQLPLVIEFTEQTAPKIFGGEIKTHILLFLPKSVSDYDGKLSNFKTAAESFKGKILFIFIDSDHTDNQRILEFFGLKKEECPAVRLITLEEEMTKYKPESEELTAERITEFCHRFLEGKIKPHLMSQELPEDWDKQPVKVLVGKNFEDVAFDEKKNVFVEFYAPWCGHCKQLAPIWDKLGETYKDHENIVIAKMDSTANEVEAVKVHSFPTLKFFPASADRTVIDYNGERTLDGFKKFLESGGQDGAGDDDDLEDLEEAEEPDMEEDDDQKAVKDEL

SMILES: CCNC(=O)[C@]1(c2ccccc2)CC[C@@H](C(=O)N2CCC(NC(=O)c3ccccc3OC)CC2)c2ccccc21 (racemic) [Co. No. 7]
- IC50 [1]: 2.28 nM
- IC50 [2]: 6.47 nM

SMILES: CCOC(=O)[C@]1(c2ccccc2)CC[C@@H](C(=O)N2CCC(NC(=O)c3ccccc3OC)CC2)c2ccccc21 (racemic) [Co. No. 26]
- IC50 [1]: 6.37 nM
- IC50 [2]: 1.92 nM

SMILES: CCOC(=O)[C@@]1(c2ccccc2)CC[C@H](C(=O)N2CCC(NC(=O)c3ccccc3)CC2)c2ccccc21 (single isomer, unassigned) [Co. No. 32]
- IC50 [1]: 7.52 nM
- IC50 [2]: 1.9 nM

SMILES: CCNC(=O)[C@@]1(c2ccccc2)CC[C@H](C(=O)N2CCC(NC(=O)c3ccccc3OC)CC2)c2ccccc21 (single isomer, unassigned) [Co. No. 39]
- IC50 [1]: 3.13 nM
- IC50 [2]: 3 nM

SMILES: COc1ccccc1C(=O)NC1CCN(C(=O)[C@@H]2CC[C@@](C(N)=O)(c3ccccc3)c3ccccc32)CC1 (single isomer, unassigned) [Co. No. 41]
- IC50 [1]: 35.8 nM
- IC50 [2]: > 10000 nM

SMILES: COc1ccccc1C(=O)NC1CCN(C(=O)[C@@H]2CC[C@](C(N)=O)(c3ccccc3)c3ccccc32)CC1 (single isomer, unassigned) [Co. No. 43]
- IC50 [1]: 267 nM
- IC50 [2]: 90.4 nM

SMILES: COc1ccccc1C(=O)NC1CCN(C(=O)[C@H]2CC[C@@](C(N)=O)(c3ccccc3)c3ccccc32)CC1 (single isomer, unassigned) [Co. No. 44]
- IC50 [1]: 106 nM
- IC50 [2]: > 1000 nM

SMILES: O=C(NC1CCN(CC2CCC(C(=O)NCc3ccccc3)(c3ccccc3)c3ccccc32)CC1)c1ccccc1 (centres unmarked) [Co. No. 1]
- IC50 [1]: 1840 nM

SMILES: O=C(NC1CCN(C(=O)C2CCC(C(=O)Nc3ccccc3)(c3ccccc3)c3ccccc32)CC1)c1ccccc1 (centres unmarked) [Co. No. 2]
- IC50 [1]: 74.5 nM

SMILES: O=C(NC1CCN(C(=O)C2CCC(C(=O)NCc3ccccc3)(c3ccccc3)c3ccccc32)CC1)c1ccccc1 (centres unmarked) [Co. No. 3]
- IC50 [1]: 80.5 nM
- IC50 [2]: 17.7 nM

SMILES: CCCNC(=O)C1(c2ccccc2)CCC(C(=O)N2CCC(NC(=O)c3ccccc3)CC2)c2ccccc21 (centres unmarked) [Co. No. 4]
- IC50 [1]: 228 nM
- IC50 [2]: 42.4 nM

SMILES: CCCNC(=O)C1(c2ccccc2)CCC(CN2CCC(NC(=O)c3ccccc3)CC2)c2ccccc21 (centres unmarked) [Co. No. 5]
- IC50 [1]: 1910 nM

SMILES: CCCNC(=O)C1(c2ccccc2)CCC(CN2CCC(NC(=O)c3ccccc3-c3ccc(C(F)(F)F)cc3)CC2)c2ccccc21 (centres unmarked) [Co. No. 6]
- IC50 [1]: 20.4 nM
- IC50 [2]: 16 nM

SMILES: C=CCOC(=O)[C@]1(c2ccccc2)CC[C@@H](C(=O)N2CCC(NC(=O)c3ccccc3OC)CC2)c2ccccc21 [Co. No. 8]
- pIC50 ([1]; pIC50 = -log IC50, listed as 8): 8.188
- IC50 [2]: 2.82 nM

SMILES: CCNC(=O)[C@]1(c2ccccc2)CC[C@@H](C(=O)N2CCC(NC(=O)c3ccccc3-c3ccc(C(F)(F)F)cc3)CC2)c2ccccc21 [Co. No. 10]
- IC50 [1]: 1.85 nM
- IC50 [2]: 1.96 nM

SMILES: CCNC(=O)[C@]1(c2ccccc2)CC[C@H](C(=O)N2CCC(NC(=O)c3ccccc3-c3ccc(C(F)(F)F)cc3)CC2)c2ccccc21 [Co. No. 11]
- IC50 [1]: > 100 nM
- IC50 [2]: 217 nM

SMILES: C=CCOC(=O)[C@@]1(c2ccccc2)CC[C@H](C(=O)N2CCC(NC(=O)c3ccccc3OC)CC2)c2ccccc21 [Co. No. 45]
- IC50 [1]: 2.63 nM

SMILES: C=CCOC(=O)[C@]1(c2ccccc2)CC[C@@H](C(=O)N2CCC(NC(=O)c3ccccc3OC)CC2)c2ccccc21 [Co. No. 46]
- pIC50 ([1]; pIC50 = -log IC50, listed as 46): 6.649

SMILES: CCOC(=O)[C@]1(c2ccccc2)CC[C@@H](C(=O)N2CCC(NC(=O)c3ccccc3N3CCN(C)CC3)CC2)c2ccccc21 [Co. No. 268]
- IC50 [2]: 14.5 nM

SMILES: C=CCOC(=O)[C@@]1(c2ccccc2)CC[C@H](C(=O)N2CCC(NC(=O)c3ccccc3N3CCN(C)CC3)CC2)c2ccccc21 [Co. No. 269]
- IC50 [2]: 8.45 nM

SMILES: CCOC(=O)[C@]1(c2ccccc2)CC[C@@H](C(=O)N2CCC(N(C)C(=O)c3ccccc3OC)CC2)c2ccccc21 [Co. No. 270]
- IC50 [2]: 14.1 nM

SMILES: CCOC(=O)[C@]1(c2cccc(F)c2)CC[C@@H](C(=O)N2CCC(NC(=O)c3ccccc3OC)CC2)c2cc(F)ccc21 [Co. No. 271]
- IC50 [2]: 2.94 nM
